# Reference: patent US20130053243A1, “PLANTS HAVING INCREASED TOLERANCE TO HERBICIDES” (BASF SE, priority 2010, published 2013)
# Read-outs that look alike come from different tables or passages of the source.
# Assays:
# [1] = molecular target: T1, Arabidopsis HPPD (Arabidopsis thaliana, UniProt P93836); test: HPPD activity assay (homogentisic acid by HPLC), wildtype enzyme; assay type: biochemical; conditions: Table 11, calculated from IC50 with Cheng-Prusoff equation, read-out: dissociation constant Ki
# T1 construct: His6 (N); made in house; host or cells: E. coli BL21 (DE3)
# T1 sequence (P93836 1-445): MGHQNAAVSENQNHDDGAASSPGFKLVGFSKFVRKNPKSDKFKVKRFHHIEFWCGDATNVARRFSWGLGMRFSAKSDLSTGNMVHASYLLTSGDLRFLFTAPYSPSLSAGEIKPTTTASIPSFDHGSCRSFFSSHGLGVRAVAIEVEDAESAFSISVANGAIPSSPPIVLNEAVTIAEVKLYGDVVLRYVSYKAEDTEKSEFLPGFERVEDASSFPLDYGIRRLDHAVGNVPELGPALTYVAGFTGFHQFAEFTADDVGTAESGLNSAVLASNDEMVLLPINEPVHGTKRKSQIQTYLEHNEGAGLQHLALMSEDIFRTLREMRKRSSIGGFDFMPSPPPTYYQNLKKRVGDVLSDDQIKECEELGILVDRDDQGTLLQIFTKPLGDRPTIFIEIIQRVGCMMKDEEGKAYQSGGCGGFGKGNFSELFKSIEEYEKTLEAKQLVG
# Protocol: (§1) HPPD produces homogentisic acid and CO2 from 4-hydroxyphenylpyruvate (4-HPP) and O2. The activity assay for HPPD is based on the analysis of homogentisic acid by reversed phase HPLC.
# (§2) The assay mixture can contain 150 mM potassium phosphate buffer pH 7.0, 50 mM L-ascorbic acid, 1 μM FeSO4 and 7 μg of purified enzyme in a total volume of 1 ml.
# (§3) Inhibitors are dissolved in DMSO (dimethylsulfoxide) to a concentration of 20 mM or 0.5 mM, respectively. From this stock solution serial five-fold dilutions are prepared in DMSO, which are used in the assay. The respective inhibitor solution accounts for 1% of the assay volume. Thus, final inhibitor concentrations range from 200 μM to 2.5 nM or from 5 μM to 63 pM, respectively.
# (§4) After a preincubation of 30 min the reaction is started by adding 4-HPP to a final concentration of 0.1 mM. The reaction is allowed to proceed for 120 min at room temperature. The reaction is stopped by addition of 100 μl of 4.5 M phosphoric acid.
# The sample is extracted on an Oasis® HLB cartridge 3 cc/60 mg (Waters) that was preequilibrated with 63 mM phosphoric acid. L-ascorbic acid is washed out with 3 ml of 63 mM phosphoric acid. […]
# (§5) 10 μl of the eluate is analyzed by reversed phase HPLC on a Symmetry® C18 column (particle size 3.5 μm, dimensions 4.6×100 mm; Waters) using 5 mM H3PO4/15% ethanol (w/w) as an eluent.
# (§6) Homogentisic acid is detected electrochemically and quantified by measuring peak areas (Empower software; Waters).
# Activities are normalized by setting the uninhibited enzyme activity to 100%. IC50 values are calculated using non-linear regression. […]
# (§7) 5 μl of the cleared sample is analyzed on an Atlantis T3 column (particle size 3 μm, dimensions 3×50 mm; Waters) by isocratic elution using 90% 10 mM NaH2PO4 pH 2.2, 10% methanol (v/v).
# (§8) HGA is detected electrochemically at 750 mV (mode: DC; polarity: positive) and quantified by integrating peak areas (Empower software; Waters).
# Inhibitors are dissolved in DMSO (dimethylsulfoxide) to a concentration of 0.5 mM. […] IC50 values are calculated using non-linear regression. […]
# [2] = molecular target: Chlamydomonas HPPD1 (Chlamydomonas reinhardtii, UniProt A0A2K3DET7); test: HPPD activity assay, wildtype enzyme; assay type: biochemical; conditions: calculated from IC50 with Cheng-Prusoff equation, read-out: dissociation constant Ki
# Protocol: as §1, §2
# Inhibitors are dissolved in DMSO (dimethylsulfoxide) to a concentration of 20 mM or 0.5 mM, respectively. From this stock solution serial five-fold dilutions are prepared in DMSO, which are used in the assay. The respective inhibitor solution accounts for 1% of the assay volume.
# as §4
# (§9) Activities are normalized by setting the uninhibited enzyme activity to 100%. IC50 values are calculated using non-linear regression.
# The assay mixture can contain 150 mM potassium phosphate buffer pH 7.0, 50 mM L-ascorbic acid, 100 μM Catalase (Sigma-Aldrich), 1 μM FeSO4 and 0.2 units of purified HPPD enzyme in a total volume of 505 μl. […]
# as §8
# Inhibitors are dissolved in DMSO (dimethylsulfoxide) to a concentration of 0.5 mM. […] IC50 values are calculated using non-linear regression.
# Using methods which are described in the above examples or well known in the art, purified, recombinant wildtype HPPD enzymes are characterized with respect to their kinetic properties and sensitivity towards HPPD inhibiting herbicides. Apparent michaelis constants (Km) and maximal reaction velocities (Vmax) are calculated by non-linear regression with the software GraphPad Prism 5 (GraphPad Software, La Jolla, USA) using a substrate inhibition model. […] Weighted means (by standard error) of Km and IC50 values are calculated from at least three independent experiments.
# [3] = molecular target: T2, Arabidopsis HPPD variant Q293N (Arabidopsis thaliana, UniProt P93836, Q293N); test: HPPD activity assay, mutant enzyme; assay type: biochemical
# T2 construct: His6 (N); made in house; host or cells: E. coli BL21 (DE3)
# Protocol: as §1, §2, §3, §4
# (§10) The sample is extracted on an Oasis® HLB cartridge 3 cc/60 mg (Waters) that was preequilibrated with 63 mM phosphoric acid. L-ascorbic acid is washed out with 3 ml of 63 mM phosphoric acid. Homogentisate is eluted with 1 ml of a 1:1 mixture of 63 mM phosphoric acid and methanol (w/w).
# as §5, §6, §9
# (§11) The assay mixture can contain 150 mM potassium phosphate buffer pH 7.0, 50 mM L-ascorbic acid, 100 μM Catalase (Sigma-Aldrich), 1 μM FeSO4 and 0.2 units of purified HPPD enzyme in a total volume of 505 μl. 1 unit is defined as the amount of enzyme that is required to produce 1 nmol of HGA per minute at 20° C.
# (§12) After a preincubation of 30 min the reaction is started by adding 4-HPP to a final concentration of 0.05 mM. The reaction is allowed to proceed for 45 min at room temperature. The reaction is stopped by the addition of 50 μl of 4.5 M phosphoric acid. The sample is filtered using a […] pore size PVDF filtration device.
# as §7, §8
# (§13) Inhibitors are dissolved in DMSO (dimethylsulfoxide) to a concentration of 0.5 mM. From this stock solution serial five-fold dilutions are prepared in DMSO, which are used in the assay. The respective inhibitor solution accounts for 1% of the assay volume. Thus, final inhibitor concentrations range from 5 μM to 320 pM, respectively. Activities are normalized by setting the uninhibited enzyme activity to 100%. IC50 values are calculated using non-linear regression.
# (§14) Purified, mutant HPPD enzymes are obtained by the methods described above. Dose response and kinetic measurements are carried out using the described HPPD activity assay. Apparent michaelis constants (Km) and maximal reaction velocities (Vmax) are calculated by non-linear regression with the software GraphPad Prism 5 (GraphPad Software, La Jolla, USA) using a substrate inhibition model. Apparent kcat values are calculated from Vmax assuming 100% purity of the enzyme preparation. Weighted means (by standard error) of Km and IC50 values are calculated from at least three independent experiments. The Cheng-Prusoff equation for competitive inhibition (Cheng, Y. C.; Prusoff, W. H. Biochem Pharmacol 1973, 22, 3099-3108) is used to calculate dissociation constants (Ki). Examples of the data obtained are depicted in Table 13.
# [4] = molecular target: T3, Arabidopsis HPPD variant Q293H (Arabidopsis thaliana, UniProt P93836, Q293H); test: HPPD activity assay, mutant enzyme; assay type: biochemical
# T3 construct: His6 (N); made in house; host or cells: E. coli BL21 (DE3)
# Protocol: as §1, §2, §3, §4, §10, §5, §6, §9, §11, §12, §7, §8, §13, §14
# [5] = test system: Chlamydomonas strain CMr10; test: Growth inhibition of Chlamydomonas strains (tolerance); assay type: cell-based, Chlamydomonas reinhardtii; conditions: read-out: IC50 of growth inhibition
# Protocol: (§15) Algae cells of Chlamydomonas reinhardtii strains CC-503 and CC-1691 (Duke University, Durham, USA) are propagated in TAP medium (Gorman and Levine (1965) PNAS 54: 1665-1669) by constant shaking at 100 rpm, 22° C. and 30 μmol Phot*m^−2*[…] light illumination. Scenedesmus obliquus (University of Gottingen, Germany) are propagated in algae medium as described (Boger and Sandmann, (1993) In: Target assays for modern herbicides and related phytotoxic compounds, Lewis Publishers) under same culturing conditions as mentioned for Chlamydomonas. Compound screening is performed at 450 μmol Phot*m^−2*[…] illumination.
# (§16) Sensitive strains of Chlamydomonas reinhardtii or Scenedesmus obliquus (Tables 14, 15) are mutated with 0.14 […] (EMS) for 1 h as described by Loppes (1969, Mol Gen Genet. 104: 172-177) Tolerant strains are identified by screening of mutagenized cells on solid nutrient solution plates containing “coumarone-derivative herbicides” or other HPPD inhibiting herbicides at wildype-lethal concentrations. Examples of the data obtained are depicted in Table 16 and FIG. 2.
# [6] = test system: Chlamydomonas strain CMr15; test: as above; assay type: cell-based, Chlamydomonas reinhardtii
# Protocol: as §15, §16
# [7] = test system: Chlamydomonas strain CMr04; test: as above; assay type: cell-based, Chlamydomonas reinhardtii
# Protocol: as §15, §16
# [8] = test system: Chlamydomonas strain CMr05; test: as above; assay type: cell-based, Chlamydomonas reinhardtii
# Protocol: as §15, §16
# [9] = test system: Chlamydomonas strain CMr06; test: as above; assay type: cell-based, Chlamydomonas reinhardtii
# Protocol: as §15, §16
# [10] = test system: Chlamydomonas strain CC1961 wild-type; test: as above; assay type: cell-based, Chlamydomonas reinhardtii; conditions: read-out: IC50 of growth inhibition
# Protocol: as §15, §16
# [11] = test system: Chlamydomonas strain CMr13; test: as above; assay type: cell-based, Chlamydomonas reinhardtii; conditions: read-out: IC50 of growth inhibition
# Protocol: as §15, §16
# [12] = test system: C. reinhardtii (CC-503); test: C. reinhardtii growth inhibition by HPPD inhibiting herbicides; assay type: cell-based, Chlamydomonas reinhardtii
# Source text: (§17) Bleaching herbicides with a mode of action in plastoquinone or tocopherol biosynthesis can inhibit algae growth (Tables 14 and 15). These effects can be partly reversed by intermediates of homogentisic acid biosynthesis (Table 14). To generate mutations conferring “coumarone-derivative herbicide” resistance in HPPD or HST genes, chemical or UV mutagenesis can be used. Especially unicellular organisms like Chlamydomonas reinhardtii or Scenedesmus obliquus are useful for identifying dominant mutations in herbicide resistance.
# as §15
# [13] = test system: Scenedesmus obliquus; test: S. obliquus growth inhibition; assay type: cell-based
# Source text: as §17, §15
# [14] = read-out: IC50 of growth inhibition
# T2 sequence (P93836 whole entry Q293N): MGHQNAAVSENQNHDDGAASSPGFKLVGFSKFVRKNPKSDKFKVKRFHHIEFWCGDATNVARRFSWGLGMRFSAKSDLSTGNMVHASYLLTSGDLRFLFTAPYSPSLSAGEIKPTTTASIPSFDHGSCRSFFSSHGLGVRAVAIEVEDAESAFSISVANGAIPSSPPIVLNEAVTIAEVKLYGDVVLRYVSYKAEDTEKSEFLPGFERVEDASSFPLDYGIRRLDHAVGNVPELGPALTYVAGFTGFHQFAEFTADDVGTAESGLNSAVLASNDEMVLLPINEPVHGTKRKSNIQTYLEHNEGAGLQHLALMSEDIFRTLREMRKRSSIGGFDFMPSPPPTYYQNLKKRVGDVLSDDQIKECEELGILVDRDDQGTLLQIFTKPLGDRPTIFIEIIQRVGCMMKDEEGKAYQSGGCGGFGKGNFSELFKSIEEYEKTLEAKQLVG
# Chlamydomonas HPPD1, sequence (A0A2K3DET7 entry or part of it): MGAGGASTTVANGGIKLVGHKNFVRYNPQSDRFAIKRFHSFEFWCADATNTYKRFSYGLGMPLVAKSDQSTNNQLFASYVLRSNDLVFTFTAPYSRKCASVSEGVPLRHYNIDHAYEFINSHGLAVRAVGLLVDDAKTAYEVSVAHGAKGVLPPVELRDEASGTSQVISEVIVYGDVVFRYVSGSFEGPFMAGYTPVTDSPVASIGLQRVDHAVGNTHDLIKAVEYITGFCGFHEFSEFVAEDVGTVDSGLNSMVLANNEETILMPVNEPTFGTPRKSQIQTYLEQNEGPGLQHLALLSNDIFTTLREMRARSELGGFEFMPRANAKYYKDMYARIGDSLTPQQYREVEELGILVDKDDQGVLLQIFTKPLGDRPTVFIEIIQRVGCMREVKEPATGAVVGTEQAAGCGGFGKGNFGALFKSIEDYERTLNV
# T3 sequence (P93836 whole entry Q293H): as the sequence (P93836 whole entry Q293N) above, with N293H counted along it
smiles,measurement,setting,value
"O=S1(=O)C(c2ccc(Cl)cc2Cl)=C(O)c2ncccc2N1CC(F)F [Inhibitor 2, 3-(2,4-dichlorophenyl)-1-(2,2-difluoroethyl)-2,2-dioxo-pyrido[3,2-c]thiazin-4-ol]",Ki,[1],0.013 µM
same,Ki,[2],0.139 µM
same,Ki,[3],0.044 µM
same,Ki,[4],0.019 µM
"CS(=O)(=O)c1ccc(C(=O)C2C(=O)CCCC2=O)c([N+](=O)[O-])c1 [Mesotrione, reference compound]",IC50,[5],450 µM
same,IC50,[6]; [14],540 µM
same,IC50,[7]; [14],> 600 µM
same,IC50,[8]; [14],> 600 µM
same,IC50,[9]; [14],> 600 µM
same,IC50,[10],30 µM
same,IC50,[11],> 600 µM
C#Cc1ccc(-c2c(O)c3ncccc3oc2=O)c(C(F)(F)F)c1 [drawing 20],Growth inihibition [%] C. reinhardtii (CC-503),[12]; c 1 * 10^−4 M,61%
same,Growth inihibition [%] C. reinhardtii (CC-503) + Homogentisic acid,[12]; c 1 * 10^−4 M,43%
same,Growth inihibition [%] C. reinhardtii (CC-503),[12]; c 5 * 10^−4 M,90%
same,Growth inihibition [%] C. reinhardtii (CC-503) + Homogentisic acid,[12]; c 5 * 10^−4 M,67%
"C#Cc1ccc(-c2c(O)c3ncccc3oc2=O)c(C(F)(F)F)c1 [drawing 21, 3-[4-ethynyl-2-(trifluoromethyl)phenyl]-4-hydroxy-pyrano[3,2-b]pyridin-2-one]",Growth inihibition [%] Scenedesmus obliquus,[13]; c 1 * 10^−4 M,100%
same,Growth inihibition [%] Scenedesmus obliquus,[13]; c 1 * 10^−5 M,77%
"Cc1c(-c2c(O)c3ncccc3oc2=O)ccc(S(C)(=O)=O)c1C1=NOC(C)C1 (stereo not drawn) [“coumarone-derivative herbicides” 1, 4-hydroxy-3-[2-methyl-3-(5-methyl-4,5-dihydroisoxazol-3-yl)-4-methylsulfonyl-phenyl]pyrano[3,2-b]pyridin-2-one]",IC50,[5],> 1000 µM
same,IC50,"[6]; strain CMr15, read-out: IC50 of growth inhibition",> 1000 µM
same,IC50,"[7]; strain CMr04, read-out: IC50 of growth inhibition",> 1000 µM
same,IC50,"[8]; strain CMr05, read-out: IC50 of growth inhibition",> 1000 µM
same,IC50,"[9]; strain CMr06, read-out: IC50 of growth inhibition",> 1000 µM
same,IC50,[10]; strain CC1961 wild-type,760 µM
same,IC50,[11],950 µM
